In PubChem BioAssay AID330 (DTP/NCI, 2004):
Values joined by “and” are separate entries in the source; they are usually repeats but may differ in a detail not shown here. Equal values may be shown once. Inconclusive results and toxic doses are left out. The calls were made as follows: active = survival T/C of 150% or more; inactive = T/C below 125% in these data.

Tested on: P388 leukemia ip, CD2F1 mice, survival T/C
Experiment: NCI In Vivo Anticancer Drug Screen. Data for tumor model P388 Leukemia (intraperitoneal) in CD2F1 (CDF1) mice
Conditions: endpoint: median survival time, higher = longer survival
Summary of the method: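 Mice carrying the transplanted tumor received test compound or vehicle. Survival was recorded in each group, and the value is the treated-group measurement divided by that of the vehicle-treated control group.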

[1] = dose: 60.0 mg/kg/injection, schedule: Q01DX005 (ip), vehicle: saline with Tween-80
[2] = dose: 120.0 mg/kg/injection, schedule: Q01DX005 (ip), vehicle: saline with Tween-80
[3] = dose: 240.0 mg/kg/injection, schedule: Q01DX005 (ip), vehicle: saline with Tween-80
[4] = dose: 100.0 mg/kg/injection, schedule: Q01DX001 (ip), vehicle: saline
[5] = dose: 200.0 mg/kg/injection, schedule: Q01DX001 (ip), vehicle: saline
[6] = dose: 50.0 mg/kg/injection, schedule: Q01DX005 (ip), vehicle: saline with Tween-80
[7] = dose: 100.0 mg/kg/injection, schedule: Q01DX005 (ip), vehicle: saline with Tween-80
[8] = dose: 200.0 mg/kg/injection, schedule: Q01DX005 (ip), vehicle: saline with Tween-80
[9] = dose: 50.0 mg/kg/injection, schedule: Q01DX005 (ip), vehicle: Klucel (hydroxypropylcellulose) (HPC)

Measured: T/C

Cc1ccc(C)n1-c1ccsc1C(=O)NNC(=O)CCl
inactive: dose: 7.5 mg/kg/injection, schedule: Q01DX005 (ip), vehicle: Klucel (hydroxypropylcellulose) (HPC) 101 % of control | dose: 15.0 mg/kg/injection, schedule: Q01DX005 (ip), vehicle: Klucel (hydroxypropylcellulose) (HPC) 99 % of control | dose: 30.0 mg/kg/injection, schedule: Q01DX005 (ip), vehicle: Klucel (hydroxypropylcellulose) (HPC) 100 % of control

C=Cc1ccc2cccc(O)c2n1
inactive: dose: 25.0 mg/kg/injection, schedule: Q01DX001 (ip), vehicle: saline with Tween-80 106 % of control | dose: 50.0 mg/kg/injection, schedule: Q01DX001 (ip), vehicle: saline with Tween-80 106 % of control | dose: 100.0 mg/kg/injection, schedule: Q01DX001 (ip), vehicle: saline with Tween-80 89 % of control and 94 % of control

CCN(Cc1cccc(S(=O)(=O)O)c1)c1ccc(C(=C2C=CC(=[N+](CC)Cc3cccc(S(=O)(=O)O)c3)C=C2)c2ccc(O)cc2S(=O)(=O)O)cc1
inactive: [1] 107 % of control | [2] 98 % of control | [3] 107 % of control

CC(=O)CC(C)c1ccc(C(C)CC(C)=O)o1 (configuration not stated)
inactive: [1] 104 % of control | [2] 106 % of control | [3] 104 % of control

ClCOc1cc(Cl)c(OCCl)cc1Cl
inactive: dose: 50.0 mg/kg/injection, schedule: Q01DX009 (ip), vehicle: Klucel (hydroxypropylcellulose) (HPC) 116 % of control | dose: 100.0 mg/kg/injection, schedule: Q01DX009 (ip), vehicle: Klucel (hydroxypropylcellulose) (HPC) 113 % of control | dose: 200.0 mg/kg/injection, schedule: Q01DX009 (ip), vehicle: Klucel (hydroxypropylcellulose) (HPC) 101 % of control

CN(C)c1ccc(/C=C/c2ccncc2)cc1
inactive: dose: 1.56 mg/kg/injection, schedule: Q01DX009 (ip), vehicle: saline with Tween-80 104 % of control and 106 % of control | dose: 3.13 mg/kg/injection, schedule: Q01DX009 (ip), vehicle: saline with Tween-80 104 % of control and 113 % of control | dose: 6.25 mg/kg/injection, schedule: Q01DX009 (ip), vehicle: saline with Tween-80 102 % of control and 94 % of control

O=C1Cc2ccccc2C(=O)N1CCN1CCOCC1
inactive: [4] 101 % of control | [5] 108 % of control

CC(=O)c1ccccc1N=Nc1ccc(N(CCCl)CCCl)cc1
inactive: dose: 50.0 mg/kg/injection, schedule: Q01DX009 (ip), vehicle: saline with Tween-80 108 % of control | dose: 100.0 mg/kg/injection, schedule: Q01DX009 (ip), vehicle: saline with Tween-80 106 % of control | dose: 200.0 mg/kg/injection, schedule: Q01DX009 (ip), vehicle: saline with Tween-80 112 % of control

O=C(CN(Cc1ccccc1)Cc1ccccc1)C(O)C1OC(c2ccccc2)OCC1O (configuration not stated)
inactive: [6] 91 % of control | [7] 88 % of control | [8] 89 % of control

C=C1C(=O)OC2/C=C(\C)C(=O)CC3OC(C)(C)OC3(C)CC(OC(=O)/C(C)=C/C)C12 (configuration not stated)
inactive: dose: 10.0 mg/kg/injection, schedule: Q01DX009 (ip), vehicle: saline with Tween-80 99 % of control | dose: 20.0 mg/kg/injection, schedule: Q01DX009 (ip), vehicle: saline with Tween-80 105 % of control | dose: 40.0 mg/kg/injection, schedule: Q01DX009 (ip), vehicle: saline with Tween-80 90 % of control

CC1(C)CN2CCO[Si](CC[Si](C)(C)C)(OCC2)O1
inactive: [9] 105 % of control | dose: 100.0 mg/kg/injection, schedule: Q01DX005 (ip), vehicle: Klucel (hydroxypropylcellulose) (HPC) 105 % of control | dose: 200.0 mg/kg/injection, schedule: Q01DX005 (ip), vehicle: Klucel (hydroxypropylcellulose) (HPC) 102 % of control

CC(C)(C)OC(=O)NC(CCC(=O)OCc1ccccc1)C(=O)ON1C(=O)CCC1=O (configuration not stated)
inactive: [6] 104 % of control | [7] 114 % of control | [8] 102 % of control

CC1=C(O)C(=O)C(c2c(C)cc(C)c(Br)c2C)=C(O)C1=O
inactive: dose: 6.25 mg/kg/injection, schedule: Q01DX005 (ip), vehicle: Klucel (hydroxypropylcellulose) (HPC) 100 % of control and 104 % of control | dose: 12.5 mg/kg/injection, schedule: Q01DX005 (ip), vehicle: Klucel (hydroxypropylcellulose) (HPC) 104 % of control and 117 % of control and 118 % of control | dose: 25.0 mg/kg/injection, schedule: Q01DX005 (ip), vehicle: Klucel (hydroxypropylcellulose) (HPC) 104 % of control and 117 % of control | [9] 116 % of control and 94 % of control

O=C(Nc1ccc(C(=O)Nc2cccc(C3=NCCN3)c2)cc1)Nc1ccc(C(=O)Nc2cccc(C3=NCCN3)c2)cc1
inactive: [4] 108 % of control | [5] 100 % of control | dose: 400.0 mg/kg/injection, schedule: Q01DX001 (ip), vehicle: saline 116 % of control
